Measurements taken from patent publication US4766140A, “Method of inhibiting aromatase” (Eli Lilly and Company, priority 1984, dated 1988).

How the values were obtained:
[1] = target: T1, aromatase (Rattus norvegicus, UniProt P22443); test: Aromatase inhibition in the rat ovarian microsome assay; format: biochemical; details: rat ovarian microsomes; substrate (androstenedione) concentration 0.1 μM
T1 construct: ovarian microsomes are obtained from rats treated with pregnant mares serum gonadotropin; from tissue; host or cells: ovarian microsomes from rats treated with pregnant mares serum gonadotropin
T1 sequence (P22443 1-508): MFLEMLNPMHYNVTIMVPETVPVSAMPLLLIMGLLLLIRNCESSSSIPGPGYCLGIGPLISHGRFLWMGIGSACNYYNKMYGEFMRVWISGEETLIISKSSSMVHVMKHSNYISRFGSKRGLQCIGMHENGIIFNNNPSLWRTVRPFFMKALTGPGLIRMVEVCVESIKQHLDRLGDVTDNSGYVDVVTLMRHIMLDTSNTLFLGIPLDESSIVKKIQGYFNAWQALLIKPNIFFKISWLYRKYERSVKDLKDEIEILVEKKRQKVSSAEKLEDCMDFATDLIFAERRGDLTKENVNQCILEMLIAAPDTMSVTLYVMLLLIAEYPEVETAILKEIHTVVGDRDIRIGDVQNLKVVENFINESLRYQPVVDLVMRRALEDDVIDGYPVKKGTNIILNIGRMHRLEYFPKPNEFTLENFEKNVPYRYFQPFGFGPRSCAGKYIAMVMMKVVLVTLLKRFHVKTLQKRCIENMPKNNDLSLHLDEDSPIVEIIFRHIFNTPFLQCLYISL
Description: In this test system, ovarian microsomes are obtained from rats treated with pregnant mares serum gonadotropin. Test compounds are added to reaction vials containing 0.1 μM 4-androstene-3,17-dione, 100,000 dpm 1,2[^3 H]-androstenedione, the microsomes and a NADPH generating system. The concentrations of the inhibitors tested ranged between 0.005 and 10 μM.

[2] = test system: DMBA-induced mammary tumors; test: DMBA-Induced Mammary Tumor Inhibition; format: in vivo, female Sprague-Dawley rats; details: 4 mg/kg daily subcutaneously, Test No. I
Description: Mammary tumors were produced in female Sprague-Dawley rats which were 50-60 days old by the gavage administration of 20 mg of 7,12-dimethylbenz[a]anthracene (DMBA). About six weeks after DMBA administration, the mammary glands were palpated at weekly intervals for the appearance of tumors. Whenever one or more tumors appeared and were measurable in an animal, that animal was selected for experimentation. […] Each control and test group contained 8 animals. The test compound was dissolved in corn oil and administered subcutaneously once daily. Every experiment included a group of control rats having tumors and were given corn oil vehicle subcutaneously. […] The area of each tumor was calculated by multiplying the shortest and longest diameters of the tumor. The treatment and measurement of animals continued for 3 weeks at which time the final areas of the tumors were determined. The change in the mean tumor area was determined, and the mean change was analyzed for its significance using Dunnett's t-test.

`Clc1ccc(C(Cn2ccnc2)OCc2ccsc2Cl)c(Cl)c1` (centres unmarked) [1-(2-[(2-chloro-3-thienyl)-methoxy]-2-[2,4-dichlorophenyl]-ethyl)-1H-imidazole] showed an EC50 [1] of 60 nM.
`c1ccc(CCCn2ccnc2)cc1` [1-(3-phenylpropyl)imidazole] was tested, and the EC50 [1] was 490 nM.
For `c1ccc(CCn2ccnc2)cc1` [1-(β-phenylethyl)imidazole], the EC50 [1] was 630 nM.
`C=CCOC(Cn1ccnc1)c1ccc(Cl)cc1Cl` (centres unmarked) [1-[2-(2,4-dichlorophenyl)-2-(2-propenyloxy)ethyl]-1H-imidazole] was tested, and the “Mean Tumor Area, Finish” value ([2]; after 3 weeks, statistically different from control, p < 0.05 (control 392.0)) was 119.0 mm^2, the “Mean Tumor Area, Start” value ([2]; start of test) was 55.2 mm^2 and the EC50 [1] was 42 nM.
Compound `O=[N+]([O-])c1ccc(CCn2ccnc2)cc1` [1-[2-(4-nitrophenyl)ethyl]-1H-imidazole] has an EC50 [1] of less than 50 nM.
Compound `COc1ccc(OC)c(C(O)Cn2ccnc2)c1` (stereo not drawn) [α-(2,5-dimethoxyphenyl)-1H-imidazole-1-ethanol nitrate] has an EC50 [1] of 1500 nM.
